The test system of the test is CEM cells HIV-1 protection, formazan growth assay. As to the kind of experiment: NCI AIDS Antiviral Assay. The following applies: for IC50: measured here: growth of uninfected CEM cells. In short, it runs like this: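 Human CEM cells, uninfected and HIV-1-infected, exposed to five drug concentrations; growth measured by soluble formazan assay and scored as percent protection from infection, with protecting compounds retested.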

The source made the active and inactive calls.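 The calls were made as follows: active = compounds giving half or more protection of infected cells from virus-caused growth loss, again on retest; inactive = the rest.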 Where a SMILES comes first, the peptide text is derived from it. The star is where a group is joined. Cbz = O=C(OCc1ccccc1)*; NHNH2 = NN*

72 compounds from PubChem BioAssay AID179 (DTP/NCI, 2004) can be followed below.

The term EC50 denotes the concentration giving half of the maximal effect. As usually defined, the IC50 is the midpoint of a concentration-inhibition curve. A high value points to a need for much substance. On to `O=C(O)c1cc(N=Nc2ccc(CCc3ccc(N=Nc4cc(C(=O)O)c(O)c5ccccc45)cc3S(=O)(=O)O)c(S(=O)(=O)O)c2)c2ccccc2c1O`, for which the EC50 is > 12.6 µM and the IC50 is > 12.6 µM.
In the case of `CN(CCN1C(=O)c2cccc3cccc(c23)C1=O)CCN1C(=O)c2cccc3cccc(c23)C1=O`, the EC50 is > 26.3 µM and the IC50 was determined as 9.12 µM.
The corresponding values for `CN1C(=O)C(=O)N2c3ccc(Cl)cc3C3(c4ccccc4)N=CC12O3` (stereo not given) are > 36.3 µM and 5.5 µM.
Consider `CCSc1c2ccccc2nc2c(OC)ccc(OC)c12`, for which the outcome was inactive.
On to `C/C(CC(O)(C(F)(F)F)C(F)(F)F)=N\NC(N)=O`, for which the EC50 is > 200 µM and the IC50 was > 200 µM.
`CCOC(=O)Cc1csc(Nc2ccc(OCC)cc2)n1`: the EC50 is > 214 µM and the IC50 came out at 145 µM.
The corresponding values for `COc1ccc(/C=C2/N=C(c3ccccc3)OC2=O)cc1OC` are > 23.4 µM and > 23.4 µM.
For the compound `C=CC(C1=CC(=O)C(OC)=CC1=O)c1ccc(OC)cc1` (stereo not given), the result was inactive.
Consider `CSC1=NC(=O)CCN1C1OCC(OC(C)=O)C(OC(C)=O)C1OC(C)=O` (stereo not given), for which the EC50 is > 200 µM and the 50% inhibitory concentration (IC50) came out at 105 µM.
In the same order, the values of `O=C(Nc1ccc(/C=C\c2ccc([N+](=O)[O-])cc2S(=O)(=O)O)c(S(=O)(=O)O)c1)OCc1ccccc1` are > 200 µM and > 200 µM.
The corresponding values for `CC(O)C(NCNC(=O)C1=C(O)C2(O)C(=O)C3=C(O)c4c(O)cccc4C(C)(O)C3CC2C(N(C)C)C1=O)C(=O)O` (stereo not given) are > 37.2 µM and > 37.2 µM.
The corresponding values for `C=C(C)C#CC(O)(C(=O)OC1CCN(C)CC1)C(C)C` (stereo not given) are > 200 µM and > 200 µM.
Regarding `Cc1cc(C)c2c(c1)CC1(Cc3cc(C)c(C)cc3C1=O)C2=O` (stereo not given), the EC50 is > 100 µM and the IC50 was > 100 µM.
For `CC1(C)C=C(/C=N/Nc2ccccc2)C(C#N)=C(O)C1(C#N)C#N`, the EC50 is > 200 µM and the IC50 amounted to 23.4 µM.
Regarding `CC1CN=C(Cc2ccc(NC(=O)c3ccc(C(=O)Nc4ccc(CC5=NCC(C)N5)cc4)cc3)cc2)N1` (stereo not given), the EC50 was > 200 µM and the IC50 came to 110 µM.
The corresponding values for `CC(=O)N(C)OC(=O)CC(=O)c1ccccc1` are > 776 µM and 661 µM.
The corresponding values for `Cc1ccc(Cc2c(=O)[nH]nc3ccccc23)cc1` are > 39.8 µM and > 39.8 µM.
The corresponding values for `CO[C@@]12[C@@H]3N[C@@H]3CN1C1=C(C(=O)C(N3CCOCC3)=C(C)C1=O)[C@@H]2COC(N)=O` are > 200 µM and > 200 µM.
For `COC1OC2C(CO)OC(n3ncc4c3ncn3cnnc43)C2O1` (stereo not given), the EC50 was > 234 µM and the half-maximal inhibitory concentration (IC50) was > 234 µM.
As for `Cc1ccc(/C([O-])=C(/C(=S)Nc2ccccc2)[n+]2ccccc2)cc1`, the EC50 was > 200 µM and the IC50 was > 200 µM.
For the compound `O=C1NC(=O)C(CCC(=O)c2ccc3ccccc3c2)C(=O)N1`, the EC50 was > 110 µM and the IC50 is > 110 µM.
As for `CC(C)c1ccc(/C(C(=O)O)=C(\O)C(=O)O)cc1`, the EC50 was > 200 µM and the IC50 was found to be 107 µM.
The corresponding values for `COc1cc2c(cc1OC)C(C1CC1)ON(C)CC2` (stereo not given) are 158 µM and > 200 µM.
Take `CC1(Cl)C(=O)NC(=O)N([C@H]2C[C@H](O)[C@@H](CO)O2)C1N=[N+]=[N-]` (stereo not given in full): the EC50 was > 200 µM and the 50% inhibitory concentration (IC50) is > 200 µM.
Consider `COc1cc(C=O)c(-c2cc3c(cc2C2(C)OCCS2)OCO3)c(OC)c1OC` (stereo not given), for which the EC50 is > 44.7 µM and the IC50 was determined as 2.51 µM.
The corresponding values for `COc1nc(C(Cl)(Cl)Cl)c(Cl)c(OC)c1Cl` are > 41.7 µM and > 41.7 µM.
The corresponding values for `O=c1cc(-c2ccccc2)oc2cccc(O)c12` are > 200 µM and > 200 µM.
The corresponding values for `C#CC(C)(C)Oc1cc(OC)c2c(=O)c3ccccc3n(C)c2c1` are > 200 µM and 11 µM.
Turning to `Cc1c(CC/C(=N\Nc2ccc([N+](=O)[O-])cc2[N+](=O)[O-])c2ccccc2)c2ccccc2n1C`, the result was inactive.
As to `NC(=O)C(N)CC12CC3CC(CC(C3)C1)C2` (stereo not given), the EC50 is > 200 µM and the IC50 is 39.8 µM.
On to `Cc1cc2c(=O)cc(-c3ccc(Cl)c(Cl)c3)oc2c(C(=O)O)c1C`, for which the result was inactive.
With `CCOC(=O)Nc1ccc2nc(N3CCCCC3)sc2c1`, the EC50 was > 85.1 µM and the IC50 was 6.31 µM.
The corresponding values for `COc1ccc(N2C(=O)CSC2c2c[nH]c3ccccc23)cc1` (stereo not given) are > 22.4 µM and > 22.4 µM.
In the same order, the values of `O=[N+]([O-])/C(C(Cl)=C(Cl)Cl)=C(/Br)SCc1ccccc1` are > 20 µM and 0.575 µM.
The corresponding values for `O=C(O)c1ccc(Nc2nc3ccccc3nc2C(=O)O)cc1` are > 200 µM and > 200 µM.
For the compound `CSc1nc(Nc2cccc(C(F)(F)F)c2)c2c(N)nn(C)c2n1`, the EC50 was > 200 µM and the IC50 is > 200 µM.
`CC(C)(C)[Si](C)(C)OCC1OC(n2ccc(=O)[nH]c2=O)C(O[Si](C)(C)C(C)(C)C)C12OC2C(=O)NN` (stereo not given): the EC50 was > 200 µM and the half-inhibitory concentration (IC50) stood at 7.41 µM.
In the same order, the values of `O=C1/C(=C\c2ccccc2)c2ccccc2N1/N=C\c1ccccc1` are > 30.9 µM and > 30.9 µM.
In the same order, the values of `C=CCc1cc2c(cc1COCOCCOCCOCCCC)OCO2` are > 200 µM and 44.7 µM.
The corresponding values for `O=c1cc(O)cc2n1CCC2` are > 1660 µM and > 1660 µM.
For `OCCN1CCN(CCCN2c3ccccc3Sc3ccc(Cl)cc32)CC1`, the EC50 was > 200 µM and the IC50 was found to be 10 µM.
The corresponding values for `C[N+](C)(C)CC(=O)NC(=O)N/N=C\C(CC#N)CN(Cc1ccccc1)Cc1ccccc1` (stereo not given) are > 74.1 µM and > 74.1 µM.
For `CC(C)CC(NC(=O)C(CO)NC(=O)OCc1ccccc1)C(=O)NC(Cc1ccc(O)cc1)C(=O)NN` (stereo not drawn) (Cbz-Ser-Leu-Tyr-NHNH2; configuration not given here), the outcome was inactive.
For `Cc1ccc(SC(C)/C=C/NNC2=NC(c3ccccc3)C(c3ccccc3)=NN2)cc1` (stereo not given), the EC50 was > 22.4 µM and the half-inhibitory concentration (IC50) was > 22.4 µM.
Regarding `O=C1/C(=C/c2cccc([N+](=O)[O-])c2)SC(=S)N1C1CC1`, the EC50 is > 32.4 µM and the IC50 is > 32.4 µM.
Turning to `Cc1ccc(N=Nc2ccc(O)c(=O)cc2)cc1`, the EC50 is > 11.2 µM and the IC50 turned out to be 6.92 µM.
In the case of `COc1ccc2oc(=O)c(-c3csc(-c4ccccc4)n3)cc2c1`, the result was inactive.
Turning to `O=C1CC2(CCNCC2)C(=O)N1N1CCCCC1`, the EC50 is > 200 µM and the IC50 is > 200 µM.
For the compound `O=S(=O)(CCn1c(Sc2ccccc2)c(Sc2ccccc2)c2ccccc21)c1ccccc1`, the EC50 is > 200 µM and the IC50 is > 200 µM.
With `Oc1c(Br)cc(Br)cc1/C=C/NC(=S)NC1CC2CC1C1C=CCC21` (stereo not given), the EC50 is > 200 µM and the IC50 was 3.02 µM.
For the compound `O=C(O)CCCCCCC[n+]1ccccc1`, the EC50 was 126 µM and the concentration for half-maximal inhibition (IC50) is > 200 µM.
In the case of `CC(=O)Oc1cc(/C=C(\C#N)C(=O)NCCCCNC(=O)/C(C#N)=C/c2cc(OC(C)=O)c(OC(C)=O)c(OC(C)=O)c2)cc(OC(C)=O)c1OC(C)=O`, the EC50 was > 200 µM and the IC50 was 21.9 µM.
In the same order, the values of `CCOC(=O)c1ccc(CSc2ccc(Cl)cc2)c([N+](=O)[O-])c1` are > 102 µM and > 102 µM.
`COc1cc2c3c(c1)nc(C)n3C(=O)C(c1ccccc1)S2` (stereo not given): the result was inactive.
On to `CC(=O)NCCC1CN(C(=O)/C=C\C#C[Si](C)(C)C)c2ccccc21` (stereo not given), for which the EC50 was > 200 µM and the IC50 came to 19.5 µM.
With `S=C(N/N=C/c1ccccn1)N1CCCCCC1`, the EC50 is > 0.2 µM and the IC50 is 0.0105 µM.
The corresponding values for `CC(=O)N(C)C(c1ccccc1)(c1ccccc1)c1ccccc1` are > 200 µM and 35.5 µM.
The corresponding values for `O=C(Nc1ccc(Cl)c(Cl)c1)Nc1ccc([N+](=O)[O-])cn1` are > 200 µM and > 200 µM.
Take `COc1cc(-c2cc(=O)c3cc(Cl)cc(Cl)c3o2)cc(OC)c1OC`: the EC50 was > 100 µM and the IC50 was > 100 µM.
For `S=C1N=C(Cl)C2(NN1)c1ccccc1-c1ccccc12`, the EC50 was > 200 µM and the IC50 is > 200 µM.
Take `OCc1ccc2c(c1)CC1(Cc3ccc(/C=N/O)cc3C1)C2` (stereo not given): the EC50 is > 200 µM and the IC50 was 0.891 µM.
The corresponding values for `CCOC(=O)c1ccc(-c2ccc(Cl)cc2)[nH]1` are > 200 µM and 44.7 µM.
Regarding `O=C(Cc1nc2ccccc2s1)C(=O)Nc1cccc(C(F)(F)F)c1`, the result was inactive.
As for `CC1=Nc2c([nH]c(=S)[nH]c2=O)NC(c2c(Cl)cccc2Cl)C1` (stereo not given), the EC50 is > 7.76 µM and the half-maximal inhibitory concentration (IC50) was > 7.76 µM.
For `Cc1c(O)c2ccccc2oc1=O`, the EC50 is > 200 µM and the IC50 was > 200 µM.
As for `O=C1C(N=Nc2ccccc2)Sc2nc3ccccc3n21` (stereo not given), the EC50 is > 200 µM and the 50% inhibitory concentration (IC50) was 85.1 µM.
In the same order, the values of `C/C(=N\NC(=S)N(C)C)c1cccnn1` are > 200 µM and 0.355 µM.
In the same order, the values of `CC(=O)OC1COC(c2ccccc2)OC1C1OC(c2ccccc2)OCC1OC(C)=O` (stereo not given) are > 200 µM and > 200 µM.
In the same order, the values of `CCCCCCCCCCCCSS(=O)(=O)c1ccc(C)cc1` are > 20.4 µM and 13.8 µM.
Take `NNc1nc(Nc2ccccc2)nc(Nc2ccccc2)n1`: the EC50 is > 200 µM and the IC50 came out at 38 µM.
The corresponding values for `COC1C(OC(=O)c2ccc(C)[nH]2)C(O)C(Oc2ccc3c(O)c(NC(=O)c4ccc(O)c(CC=C(C)C)c4)c(=O)oc3c2Cl)OC1(C)C` (stereo not given) are > 200 µM and 15.8 µM.
Regarding `CCCNC(=O)Sc1ccccc1C(=O)NCCC(N)=O`, the EC50 is > 2.63 µM.
